Each structure is given as a SMILES string. Like-named read-outs stand apart in the source and are kept apart here.

One test deals with E. faecium. The test is described as follows: Broth microdilution MIC (Example 5). In kind it is cell-based. The note with it: VRE vanA. The method, boiled down:
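MICs were determined by CLSI broth microdilution with serial two-fold drug dilutions in CLSI-prepared media. Inocula were set to 0.5 McFarland, diluted, and added to the plates. Bacteria were incubated at 35° C. for 16-24 hr, and endpoints were read visually per CLSI criteria.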
A general note: In broth dilution the organism is exposed to a series of concentrations in liquid medium.

The test system of test [1] is relevant ATCC QC organisms. The note with it: CLSI established QC range, cited from earlier work.
Test [2] concerns vancomycin-intermediate Staphylococcus aureus. The test is described as follows: Broth microdilution MIC (Example 6). It counts as cell-based. Put shortly:
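CLSI broth microdilution in cation-adjusted Mueller Hinton broth, test agents 0.06-64 μg/mL from DMSO stocks, inoculum approx. 5×10^5 CFU/mL. Incubation 35° C for 16–20 hr; MIC taken as lowest concentration inhibiting visible growth.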

Usually MIC stands for the least concentration at which growth counts as inhibited. As for `CC(C)(O/N=C(\C(=O)N[C@@H]1C(=O)N2C(C(=O)[O-])=C(C[n+]3ccccc3)CS[C@H]12)c1csc(N)n1)C(=O)O` [Ceftazidime], the MIC against E. faecium (E. faecium MMX 485) is above 32 µg/mL. In addition, the “MIC QC range (in parentheses)” value was “(0.06-0.5) μg/mL” in test [1] (E. coli ATCC 25922) and “(1-4) μg/mL” in test [1] (P. aeruginosa ATCC 27853).
For the compound `NCC[C@H](O)C(=O)N[C@@H]1C[C@H](N)[C@@H](O[C@H]2O[C@H](CN)[C@@H](O)[C@H](O)[C@H]2O)[C@H](O)[C@H]1O[C@H]1O[C@H](CO)[C@@H](O)[C@H](N)[C@H]1O` [Amikacin], in test [1] (P. aeruginosa ATCC 27853), the “MIC QC range (in parentheses)” value is reported as “(1-4) μg/mL”.
Turning to `CCC[C@@H]1C[C@@H](C(=O)N[C@@H]([C@H]2O[C@H](SC)[C@H](O)[C@@H](O)[C@H]2O)[C@H](C)Cl)N(C)C1` [CLI], the minimal inhibitory concentration (MIC) in test [2] (S. aureus isolate NRS 1 (hVISA)) was above 8 µg/mL; in test [2] (S. aureus isolate NRS 2) it was above 8 µg/mL; in test [2] (S. aureus isolate NRS 3), above 8 µg/mL; in test [2] (S. aureus isolate NRS 4), above 8 µg/mL; in test [2] (S. aureus isolate NRS 13), 0.06 µg/mL; in test [2] (S. aureus isolate NRS 18), above 8 µg/mL. The MIC in test [2] (S. aureus isolate NRS 22), in test [2] (S. aureus isolate NRS 24 (hVISA)) and in test [2] (S. aureus isolate NRS 27) was above 8 µg/mL each time. Moreover, the “MIC QC range (in parentheses)” value in test [1] (S. aureus ATCC 29213) was “(0.06-0.25) μg/mL”.
As for `OCC(S)CS.[Bi]` (stereo not shown) [MB-2B, bismuth-2,3-dimercaptopropanol], the minimum inhibitory concentration (MIC) was found to be 2 µg/mL in the test with E. faecium (Enterococcus faecium, VRE, E. faecium MMX 485); 4 µg/mL with E. faecium (Enterococcus faecium, VRE, E. faecium MMX 752); 1 µg/mL in test [2] (Staphylococcus aureus, NRS1); 0.5 µg/mL in test [2] (Staphylococcus aureus, NRS2); 2 µg/mL in test [2] (Staphylococcus aureus, NRS3); 1 µg/mL in test [2] (Staphylococcus aureus, NRS4). Further, the minimum inhibitory concentration (MIC) in test [2] (Staphylococcus aureus, NRS13) is 1 µg/mL; in test [2] (Staphylococcus aureus, NRS18), 1 µg/mL; in test [2] (Staphylococcus aureus, NRS22), 2 µg/mL; in test [2] (Staphylococcus aureus, NRS24), 1 µg/mL; in test [2] (Staphylococcus aureus, NRS27) it was 1 µg/mL.
As for `CC(S)C(C)S.[Bi]` (stereo not shown) [MB-6, bismuth-2,3-butanedithiol], the MIC is 0.12 µg/mL in test [2] (Staphylococcus aureus, NRS1); at most 0.06 µg/mL in test [2] (Staphylococcus aureus, NRS2); 1 µg/mL in test [2] (Staphylococcus aureus, NRS24).
As for `C[C@H]1COc2c(N3CCN(C)CC3)c(F)cc3c(=O)c(C(=O)O)cn1c23` [Levofloxacin], the MIC is above 64 µg/mL in the test with E. faecium (E. faecium MMX 485); 4 µg/mL in test [2] (Staphylococcus aureus, NRS1, S. aureus isolate NRS 1 (hVISA), read-out: MIC); 4 µg/mL in test [2] (Staphylococcus aureus, NRS2, S. aureus isolate NRS 2, read-out: MIC); above 8 µg/mL in test [2] (Staphylococcus aureus, NRS3, S. aureus isolate NRS 3, read-out: MIC); 4 µg/mL in test [2] (Staphylococcus aureus, NRS4, S. aureus isolate NRS 4, read-out: MIC); 0.12 µg/mL in test [2] (Staphylococcus aureus, NRS13, S. aureus isolate NRS 13, read-out: MIC). Besides, the MIC in test [2] (Staphylococcus aureus, NRS18, S. aureus isolate NRS 18, read-out: MIC) was 4 µg/mL; in test [2] (Staphylococcus aureus, NRS22, S. aureus isolate NRS 22, read-out: MIC), 8 µg/mL; in test [2] (Staphylococcus aureus, NRS24, S. aureus isolate NRS 24 (hVISA), read-out: MIC), above 8 µg/mL; in test [2] (Staphylococcus aureus, NRS27, S. aureus isolate NRS 27, read-out: MIC), 8 µg/mL.
`C[C@@H](O)[C@H]1C(=O)N2C(C(=O)O)=C(S[C@@H]3CN[C@H](C(=O)N(C)C)C3)[C@H](C)[C@H]12` [Meropenem] came in with a minimum inhibitory concentration (MIC) in the test with E. faecium (E. faecium MMX 485) above 64 µg/mL. The “MIC QC range (in parentheses)” value in test [1] (E. coli ATCC 25922) is given as “(0.008-0.06) μg/mL”; in test [1] (E. coli ATCC 35218), “(0.008-0.06) μg/mL”; in test [1] (K. pneumoniae ATCC BAA-1705), “(8-64) μg/mL”; in test [1] (P. aeruginosa ATCC 27853), “(0.12-1) μg/mL”.

These data come from patent US20240285571A1, “METHODS OF TREATING BONE INFECTIONS” (MICROBION CORPORATION, priority 2020, published 2024).
